Experiments:
[1] = set-up: method as in PMID 6599419; conditions: humans; cited from earlier work
[2] = test system: cardiac tissue model (hiPSC-derived cardiomyocytes co-cultured with vascular-like network); test: Multielectrode array (MEA) field potential recording: FPD, beating frequency, Na+ spike amplitude; format: cell-based, human; conditions: for effect on FPD (in words) / signs of cardio activity or toxicity: MEA; for effect on FPD (in words): acute cumulative exposure; for signs of cardio activity or toxicity: negative controls, up to 30 µM
Method: Hydrophobic compounds were solubilized in DMSO as 10 mM stocks. The water-soluble compounds were solubilized in distilled water as 1 mM stocks.
Extracellular field potentials were recorded using a Multiwell-MEA-System (Multi Channel Systems) with a 20 kHz sampling frequency on days 8–9 after cardiomyocyte seeding. The temperature was set at 37 °C and the cells were supplied with 5% CO2 during the measurements. Two-minute recordings were obtained as spontaneous baseline beating, after which the cardiac tissue models were exposed to a ½ logarithmic cumulative concentration series spanning from […] of the test compounds. With 24-well plates four replicate wells and with 96-well plates eight replicate wells were used for each compound. The wash-in period between administration of the test compounds and 2-min recording was 8 min. The field potentials were recorded with Multiwell-Screen software (Multi Channel Systems) and analysed with Multiwell-Analyzer software (Multi Channel Systems). The data from the electrodes showing clear beating patterns, sodium spike voltage change over 70 µV, and a detectable T-wave were used for the analyses. Data obtained from the electrodes of one well were averaged. In the analyses, each well was treated as an individual and (the ratio of) test compound-induced changes were calculated against the recorded baseline from the same well. The data was normalized only against the baseline values, not against the vehicle control. All the field potential durations (FPD) were corrected against the changes in beating frequency using the Fridericia formula cFPD=FPD/RR3 , where RR is the RR interval.
For each compound, we analysed the effects on FPD, beat rate and amplitude. We selected one MEA parameter based on their mechanism of action. FPD, that corresponds to the QT interval[59], was selected for compounds that are known to affect the QT time e.g., by targeting hERG or Ca^2+ channels. Beat rate was selected for compounds that target adrenergic receptors.
For the electrophysiology measurements, the chosen sample size was either 4 when using 24-well MEA plates with 12 electrodes per well and 8 when using 96-well MEA plates with 3 electrodes per well. The reported n stands for the number of wells (cardiac tissue models) per repetition of the study. Each test was repeated 3 times using 4–8 parallels in each concentration. Excel (Microsoft) was used for to calculate the p-values using Student’s two-tailed t-test. EC50 and IC50 values were calculated using non-linear fit four-parameters logistic equation Prism version 5.0. (GraphPad). The baseline values were used as Emin.

[3] = free plasma concentration from the literature; cited from earlier work
[4] = test system: QT interval; conditions: cited from earlier work
[5] = test system: QT interval; conditions: cited from earlier work; remark: listed apart in the source
[6] = test system: sodium channels; set-up: method as in PMID 10069689; conditions: canine atrial myocytes; cited from earlier work
[7] = test system: calcium channels; set-up: method as in PMID 17078945; conditions: cited from earlier work
[8] = test system: hiPSC-derived cardiomyocytes; set-up: method as in PMID 28456566; conditions: cited from earlier work

SMILES: CC(CC(c1ccccc1)c1ccccc1)NC(C)(C)C (stereo not drawn) [Terodiline]
- toxic plasma concentration [1]: 2.1 µM
- EC50 ([2]; Homo sapiens, Cardiomyocyte, as rounded in the discussion, read-out: amplitude EC50 concentration): 2600 nM
- effect on FPD (in words) [2]: did not detect the expected FPD prolongation
- Therapeutic concentration [3]: 1800[60] nM

SMILES: COc1cc2nc(N(C)CCCNC(=O)C3CCCO3)nc(N)c2cc1OC (stereo not drawn) [Alfuzosin]
- increase in FPD ([2]; at 300 nM, statistically significant): 20%
- QT effect in patients ([4]; at high doses (100 nM)): mild QT increase
- Therapeutic concentration [3]: 56[21] nM
- concentration that significantly prolongs the QT interval in vitro [5]: 300 nM

SMILES: CC(C)NCC(O)c1ccc(NS(C)(=O)=O)cc1 (stereo not drawn) [Sotalol]
- Therapeutic concentration [3]: 13,000[60] nM

SMILES: C[C@H]1O[C@@H](O[C@H]2[C@@H](O)C[C@H](O[C@H]3[C@@H](O)C[C@H](O[C@H]4CC[C@@]5(C)[C@H](CC[C@@H]6[C@@H]5C[C@@H](O)[C@]5(C)[C@@H](C7=CC(=O)OC7)CC[C@]65O)C4)O[C@@H]3C)O[C@@H]2C)C[C@H](O)[C@@H]1O [Digoxin]
- Therapeutic concentration [3]: 2.8[61] nM

SMILES: CC(C)NCC(O)COc1cccc2ccccc12 (stereo not drawn) [Propranolol]
- Therapeutic concentration [3]: 1095[64] nM

SMILES: COc1c(N2C[C@@H]3CCCN[C@@H]3C2)c(F)cc2c(=O)c(C(=O)O)cn(C3CC3)c12 [Moxifloxasin]
- Therapeutic concentration [3]: 5600[60] nM

SMILES: CCN(CC)CC(=O)Nc1c(C)cccc1C [Lidocaine]
- Therapeutic concentration [3]: 2500[29] nM

SMILES: C=C[C@H]1C[N@@]2CC[C@H]1C[C@@H]2[C@@H](O)c1ccnc2ccc(OC)cc12 [Quinidine]
- Therapeutic concentration [3]: 3240[60] nM

SMILES: CCCCCCc1ccc(O)cc1O [Hexylresorcinol]
- signs of cardio activity or toxicity [2]: None

SMILES: COc1ccccc1OCC(O)CN1CCN(CC(=O)Nc2c(C)cccc2C)CC1 (stereo not drawn) [Ranolazine]
- Therapeutic concentration [3]: 6010[21] nM

SMILES: O=C(CCCN1CCC(O)(c2ccc(Cl)cc2)CC1)c1ccc(F)cc1 [Haloperidol]
- Therapeutic concentration [3]: 45[60] nM

SMILES: N=C(N)c1ccc(OCCCCCOc2ccc(C(=N)N)cc2)cc1 [Pentamidine]
- effect on FPD (in words) [2]: could not detect any significant FPD prolongation
- Therapeutic concentration [3]: 190[61] nM

SMILES: COC(=O)C1=C(C)NC(C)=C(C(=O)OC(C)C)C1c1cccc2nonc12 (stereo not drawn) [Isradipine]
- Therapeutic concentration [3]: 80[61] nM

SMILES: CC(C)NCC(O)c1ccc(O)c(O)c1 (stereo not drawn) [Isoprenaline]
- Therapeutic concentration [3]: 0.84[63] nM

SMILES: COc1cc(N)c(Cl)cc1C(=O)NC1CCN(CCCOc2ccc(F)cc2)CC1OC (stereo not drawn) [Cisapride]
- Therapeutic concentration [3]: 2.5[29] nM

SMILES: CC(C)(C)c1ccc(C(O)CCCN2CCC(C(O)(c3ccccc3)c3ccccc3)CC2)cc1 (stereo not drawn) [Terfenadine]
- effect on FPD (in words) [2]: FPD shortening
- increase in FPD before the shortening of FPD initiated ([2]; non-significant): 10%
- Therapeutic concentration [3]: 300[21] nM
- IC50 [6]: 930 nM
- IC50 [7]: 185 nM

SMILES: CNC[C@H](O)c1ccc(O)c(O)c1 [Epinephrine]
- Therapeutic concentration [3]: 2.64[62] nM

SMILES: CC(C)Cc1ccc(C(C)C(=O)O)cc1 (stereo not drawn) [Ibuprofen]
- signs of cardio activity or toxicity [2]: None

SMILES: CC(=O)Oc1ccccc1C(=O)O [Acetyl salicylic acid]
- signs of cardio activity or toxicity [2]: None

SMILES: COC(=O)C1=C(C)NC(C)=C(C(=O)OC)C1c1ccccc1[N+](=O)[O-] [Nifedipine]
- Therapeutic concentration [3]: 190[60] nM

SMILES: C[C@@H]1CC(=O)NN=C1c1ccc(NN=C(C#N)C#N)cc1 [Levosimendan]
- Therapeutic concentration [3]: 129[21] nM

SMILES: COc1ccc(CCN2CCC(Nc3nc4ccccc4n3Cc3ccc(F)cc3)CC2)cc1 [Astemizole]
- Therapeutic concentration [3]: 8[21] nM

SMILES: Cc1ccc(O)c([C@H](CCN(C(C)C)C(C)C)c2ccccc2)c1 [Tolterodine]
- QT interval in clinical use [4]: does not prolong the QT interval
- Therapeutic concentration [3]: 5 nM
- in vivo concentration corresponding to the QT-prolonging concentration in vitro ([5]; very high concentration in vitro): 340 nM

SMILES: COc1cccc2c1C(=O)c1c(O)c3c(c(O)c1C2=O)C[C@@](O)(C(=O)CO)C[C@@H]3O[C@H]1C[C@H](N)[C@H](O)[C@H](C)O1 [Doxorubicin]
- apoptosis of hiPSC-derived cardiomyocytes ([8]; after two days of exposure): increase
- effect on FPD or beat rate ([8]; short exposures): not to affect
- changes to FPD, BPM or amplitude ([2]; short-term experiments, exposures up to 2 h): could not detect any

SMILES: O=c1[nH]c2ccccc2n1C1CCN(CCCC(c2ccc(F)cc2)c2ccc(F)cc2)CC1 [Pimozide]
- Therapeutic concentration [3]: 3.7[61] nM

SMILES: CN(CCOc1ccc(NS(C)(=O)=O)cc1)CCc1ccc(NS(C)(=O)=O)cc1 [Dofetilide]
- Therapeutic concentration [3]: 2[60] nM

SMILES: NCCc1ccc(O)c(O)c1 [Dopamine]
- Therapeutic concentration [3]: 300 (20% increase) nM
